Assay results reported in US12077503B2, “Substituted cyclic amides and their use as herbicides” (FMC CORPORATION, priority 2015, dated 2024).

Experiments:
Format in all cases: in vivo
[1] = test system: giant foxtail (Setaria faberi); assay: Test G Pre-Emergence Protocol; settings: Setaria faberi, pre-emergence, 312 h, evaluated after 13 days; for pest or weed control at 15.625 g/ha: 15.625 g ai/ha; for pest or weed control at 15.625 g/ha / pest or weed control at 250 g/ha: read-out: Foxtail, Giant damage rating (100=total damage to plant; 0=no damage to plant); for pest or weed control at 62.5 g/ha: 62.5 g ai/ha, 100=total damage to plant, 0=no damage to plant, read-out: Foxtail, Giant damage rating; for pest or weed control at 250 g/ha: 250 g ai/ha
Outline: (§1)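 Seeds were sown in standard soil and kept one day in a glasshouse (24/16° C day/night, 14 h light, 65% humidity), then sprayed with compound in acetone/water (50:50) containing 0.5% Tween 20 at 15.625, 62.5 or 250 g/ha. Damage was scored after 13 days (0 = none, 100 = total).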

[2] = test system: corn (Zea mays); assay: Test G Pre-Emergence Protocol; settings: Zea mays, pre-emergence, 312 h, evaluated after 13 days; for plant injury at 15.625 g/ha: 15.625 g ai/ha; for plant injury at 15.625 g/ha / plant injury at 250 g/ha: read-out: Corn damage rating (100=total damage to plant; 0=no damage to plant); for plant injury at 62.5 g/ha: 62.5 g ai/ha, 100=total damage to plant, 0=no damage to plant, read-out: Corn damage rating; for plant injury at 250 g/ha: 250 g ai/ha
Outline: as §1

[3] = test system: ivy-leaved morning glory (Ipomoea hederacea); assay: Test G Pre-Emergence Protocol; settings: Ipomoea, pre-emergence, 312 h, evaluated after 13 days; for pest or weed control at 15.625 g/ha: 15.625 g ai/ha; for pest or weed control at 15.625 g/ha / pest or weed control at 250 g/ha: read-out: Morningglory, Ivy-leaved damage rating (100=total damage to plant; 0=no damage to plant); for pest or weed control at 62.5 g/ha: 62.5 g ai/ha, 100=total damage to plant, 0=no damage to plant, read-out: Morningglory, Ivy-leaved damage rating; for pest or weed control at 250 g/ha: 250 g ai/ha
Outline: as §1

[4] = test system: velvetleaf (Abutilon theophrasti); assay: Test G Pre-Emergence Protocol; settings: Abutilon theophrasti, pre-emergence, 312 h, evaluated after 13 days; for pest or weed control at 15.625 g/ha: 15.625 g ai/ha; for pest or weed control at 15.625 g/ha / pest or weed control at 250 g/ha: read-out: Velvetleaf damage rating (100=total damage to plant; 0=no damage to plant); for pest or weed control at 62.5 g/ha: 62.5 g ai/ha, 100=total damage to plant, 0=no damage to plant, read-out: Velvetleaf damage rating; for pest or weed control at 250 g/ha: 250 g ai/ha
Outline: as §1

[5] = test system: barnyardgrass (Echinochloa crus-galli); assay: Test G Pre-Emergence Protocol; settings: Echinochloa crus-galli, pre-emergence, 312 h, evaluated after 13 days; for pest or weed control at 15.625 g/ha: 15.625 g ai/ha; for pest or weed control at 15.625 g/ha / pest or weed control at 250 g/ha: read-out: Barnyardgrass damage rating (100=total damage to plant; 0=no damage to plant); for pest or weed control at 62.5 g/ha: 62.5 g ai/ha, 100=total damage to plant, 0=no damage to plant, read-out: Barnyardgrass damage rating; for pest or weed control at 250 g/ha: 250 g ai/ha
Outline: as §1

[6] = test system: redroot pigweed (Amaranthus retroflexus); assay: Test G Pre-Emergence Protocol; settings: Amaranthus retroflexus, pre-emergence, 312 h, evaluated after 13 days; for pest or weed control at 15.625 g/ha: 15.625 g ai/ha; for pest or weed control at 15.625 g/ha / pest or weed control at 250 g/ha: read-out: Pigweed, Redroot damage rating (100=total damage to plant; 0=no damage to plant); for pest or weed control at 62.5 g/ha: 62.5 g ai/ha, 100=total damage to plant, 0=no damage to plant, read-out: Pigweed, Redroot damage rating; for pest or weed control at 250 g/ha: 250 g ai/ha
Outline: as §1

[7] = test system: giant foxtail (Setaria faberi); assay: Test G Post-Emergence Protocol; settings: Setaria faberi, post-emergence, 312 h, read-out: Foxtail, Giant damage rating; for pest or weed control at 15.625 g/ha: 15.625 g ai/ha, evaluated after 13 days (100=total damage to plant; 0=no damage to plant); for pest or weed control at 62.5 g/ha: 62.5 g ai/ha; for pest or weed control at 62.5 g/ha / pest or weed control at 250 g/ha: evaluated after 13 days, 100=total damage to plant, 0=no damage to plant; for pest or weed control at 250 g/ha: 250 g ai/ha
Outline: (§2)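 Scores run 0 (no damage) to 100 (total damage) and were taken 13 days after spraying. Plants had been raised in pots for 8 days under glasshouse control (24/16 °C, 14 h photoperiod, 65% humidity) and then treated at 15.625, 62.5 or 250 g/ha.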

[8] = test system: corn (Zea mays); assay: Test G Post-Emergence Protocol; settings: Zea mays, post-emergence, 312 h, read-out: Corn damage rating; for plant injury at 15.625 g/ha: 15.625 g ai/ha, evaluated after 13 days (100=total damage to plant; 0=no damage to plant); for plant injury at 62.5 g/ha: 62.5 g ai/ha; for plant injury at 62.5 g/ha / plant injury at 250 g/ha: evaluated after 13 days, 100=total damage to plant, 0=no damage to plant; for plant injury at 250 g/ha: 250 g ai/ha
Outline: as §2

[9] = test system: ivy-leaved morning glory (Ipomoea hederacea); assay: Test G Post-Emergence Protocol; settings: Ipomoea, post-emergence, 312 h, read-out: Morningglory, Ivy-leaved damage rating; for pest or weed control at 15.625 g/ha: 15.625 g ai/ha, evaluated after 13 days (100=total damage to plant; 0=no damage to plant); for pest or weed control at 62.5 g/ha: 62.5 g ai/ha; for pest or weed control at 62.5 g/ha / pest or weed control at 250 g/ha: evaluated after 13 days, 100=total damage to plant, 0=no damage to plant; for pest or weed control at 250 g/ha: 250 g ai/ha
Outline: as §2

[10] = test system: velvetleaf (Abutilon theophrasti); assay: Test G Post-Emergence Protocol; settings: Abutilon theophrasti, post-emergence, 312 h, read-out: Velvetleaf damage rating; for pest or weed control at 15.625 g/ha: 15.625 g ai/ha, evaluated after 13 days (100=total damage to plant; 0=no damage to plant); for pest or weed control at 62.5 g/ha: 62.5 g ai/ha; for pest or weed control at 62.5 g/ha / pest or weed control at 250 g/ha: evaluated after 13 days, 100=total damage to plant, 0=no damage to plant; for pest or weed control at 250 g/ha: 250 g ai/ha
Outline: as §2

[11] = test system: barnyardgrass (Echinochloa crus-galli); assay: Test G Post-Emergence Protocol; settings: Echinochloa crus-galli, post-emergence, 312 h, read-out: Barnyardgrass damage rating; for pest or weed control at 15.625 g/ha: 15.625 g ai/ha, evaluated after 13 days (100=total damage to plant; 0=no damage to plant); for pest or weed control at 62.5 g/ha: 62.5 g ai/ha; for pest or weed control at 62.5 g/ha / pest or weed control at 250 g/ha: evaluated after 13 days, 100=total damage to plant, 0=no damage to plant; for pest or weed control at 250 g/ha: 250 g ai/ha
Outline: as §2

[12] = test system: redroot pigweed (Amaranthus retroflexus); assay: Test G Post-Emergence Protocol; settings: Amaranthus retroflexus, post-emergence, 312 h, read-out: Pigweed, Redroot damage rating; for pest or weed control at 15.625 g/ha: 15.625 g ai/ha, evaluated after 13 days (100=total damage to plant; 0=no damage to plant); for pest or weed control at 62.5 g/ha: 62.5 g ai/ha; for pest or weed control at 62.5 g/ha / pest or weed control at 250 g/ha: evaluated after 13 days, 100=total damage to plant, 0=no damage to plant; for pest or weed control at 250 g/ha: 250 g ai/ha
Outline: as §2

SMILES | pest or weed control at 15.625 g/ha [1] | pest or weed control at 62.5 g/ha [1] | pest or weed control at 250 g/ha [1] | plant injury at 15.625 g/ha [2] | plant injury at 62.5 g/ha [2] | plant injury at 250 g/ha [2] | pest or weed control at 62.5 g/ha [3] | pest or weed control at 250 g/ha [3] | pest or weed control at 15.625 g/ha [4] | pest or weed control at 62.5 g/ha [4] | pest or weed control at 250 g/ha [4] | pest or weed control at 15.625 g/ha [5] | pest or weed control at 62.5 g/ha [5] | pest or weed control at 250 g/ha [5] | pest or weed control at 15.625 g/ha [6] | pest or weed control at 62.5 g/ha [6] | pest or weed control at 250 g/ha [6] | pest or weed control at 15.625 g/ha [7] | pest or weed control at 62.5 g/ha [7] | pest or weed control at 250 g/ha [7] | other results
COc1cc(Cl)cc(C2CN(C)C(=O)C2C(=O)Nc2cccc(F)c2F)c1 (centres unmarked) [Compound 1690] | 70% | 80% | 90% | 0% | 20% | 70% | 0% | 0% | 0% | 0% | 30% | 50% | 80% | 90% | 0% | 0% | 20% | 80% | 80% | 90% | pest or weed control at 15.625 g/ha [3]: 0%; plant injury at 15.625 g/ha [8]: 10%; plant injury at 62.5 g/ha [8]: 70%; plant injury at 250 g/ha [8]: 80%; pest or weed control at 15.625 g/ha [9]: 20%; pest or weed control at 62.5 g/ha [9]: 70%; pest or weed control at 250 g/ha [9]: 60%; pest or weed control at 15.625 g/ha [10]: 0%; pest or weed control at 62.5 g/ha [10]: 20%; pest or weed control at 250 g/ha [10]: 40%; pest or weed control at 15.625 g/ha [11]: 70%; pest or weed control at 62.5 g/ha [11]: 80%; pest or weed control at 250 g/ha [11]: 90%; pest or weed control at 15.625 g/ha [12]: 0%; pest or weed control at 62.5 g/ha [12]: 20%; pest or weed control at 250 g/ha [12]: 40%
CN1CC(c2cc(F)cc(OCC(F)(F)F)c2)C(C(=O)Nc2cccc(F)c2F)C1=O (centres unmarked) [Compound 1698] | 70% | 70% | 90% | 0% | 30% | 70% | 0% | 20% | 0% | 10% | 20% | 60% | 70% | 80% | 0% | 10% | 40% | 80% | 80% | 80% | pest or weed control at 15.625 g/ha [3]: 10%; plant injury at 15.625 g/ha [8]: 20%; plant injury at 62.5 g/ha [8]: 70%; plant injury at 250 g/ha [8]: 70%; pest or weed control at 15.625 g/ha [9]: 10%; pest or weed control at 62.5 g/ha [9]: 70%; pest or weed control at 250 g/ha [9]: 70%; pest or weed control at 15.625 g/ha [10]: 0%; pest or weed control at 62.5 g/ha [10]: 10%; pest or weed control at 250 g/ha [10]: 50%; pest or weed control at 15.625 g/ha [11]: 60%; pest or weed control at 62.5 g/ha [11]: 80%; pest or weed control at 250 g/ha [11]: 80%; pest or weed control at 15.625 g/ha [12]: 20%; pest or weed control at 62.5 g/ha [12]: 30%; pest or weed control at 250 g/ha [12]: 60%
Cc1cc(C2CN(C)C(=O)C2C(=O)Nc2cccc(F)c2F)cc(C)c1Cl (centres unmarked) [Compound 1700] | 40% | 80% | 90% | 0% | 0% | 30% | 10% | 20% | 0% | 0% | 0% | 20% | 50% | 70% | 0% | 0% | 0% | 40% | 60% | 70% | plant injury at 15.625 g/ha [8]: 30%; plant injury at 62.5 g/ha [8]: 30%; plant injury at 250 g/ha [8]: 40%; pest or weed control at 15.625 g/ha [9]: 20%; pest or weed control at 62.5 g/ha [9]: 20%; pest or weed control at 250 g/ha [9]: 60%; pest or weed control at 15.625 g/ha [10]: 0%; pest or weed control at 62.5 g/ha [10]: 0%; pest or weed control at 250 g/ha [10]: 0%; pest or weed control at 15.625 g/ha [11]: 20%; pest or weed control at 62.5 g/ha [11]: 50%; pest or weed control at 250 g/ha [11]: 70%; pest or weed control at 15.625 g/ha [12]: 0%; pest or weed control at 62.5 g/ha [12]: 0%; pest or weed control at 250 g/ha [12]: 0%
